Assay results: patent US10837957B2, “In vitro model for pathological or physiologic conditions” (HemoShear, LLC, priority 2012, dated 2020)
Each block holds one compound with its values, some of them ahead of it.

Assays:
cytochrome p450 1A/1B = assay: Cytochrome p450 activity assay (P450-GLO) in hepatocytes, induction
cytochrome p450 3A = assay: as above; type: cell-based, rat; conditions: controlled hemodynamics 0.6 dynes/cm^2, dexamethasone 02.5 μM, 48 hours, day 7; DMSO 11.64
primary rat hepatocytes = assay: Toxicity to hepatocytes cultured under controlled flow; conditions: 50 μM dexamethasone
hepatocytes [1] = assay: In vitro fatty liver model: lipid accumulation (Nile red, Oil Red O, total triglycerides); type: cell-based, rat; conditions: 1.5 μM pioglitazone, high insulin/glucose media
Procedure: Samples were then blocked in 5% goat serum, 0.2% blotting grade non-fat dry milk blocker, and 1% BSA in PBS for 45 minutes. The samples were then washed thrice in 0.1% BSA in PBS and incubated with 1:5000 dilution of Nile red (1 mM stock), 1:1000 DRAQS (a fluorescent DNA dye; Cell Signalling), 1:500 ALEXA FLUOR 488 conjugated phalloidin (Life Technologies), and 1% BSA in PBS for thirty minutes and protected from light. The samples were washed in 0.1% BSA in PBS thrice for five minutes each and mounted on glass cover slips using PROLONG GOLD antifade mounting media (an antifade reagent; Invitrogen). The samples were imaged on a Nikon C1+ Confocal System microscope. Oil Red O Assay: Accumulation of intracellular lipids within hepatocytes was assessed by adapting and modifying a commercially available Steatosis Colorimetric Assay Kit (Cayman Chemical). At the end of the culture period, 2 cm^2 sized porous membrane segments containing the hepatocytes from devices under healthy and steatotic conditions were washed with PBS and fixed in 4% paraformaldehyde for 30 minutes. […] The solution was then transferred to clear 96-well plates and absorbance was read at 490-520 nm in a spectrophotometer. Measurement of Total Triglycerides: Triglyceride content was assessed using a commercially available colorimetric assay kit (Cayman Triglyceride Colorimetric Assay Kit, Cat #10010303). […]

hepatocytes [2] = assay: In vitro fatty liver model: RT-PCR of metabolic and lipid pathway genes; type: cell-based, rat; conditions: 1.5 μM pioglitazone, high insulin/glucose disease conditions
[3] = test system: endothelial cells and smooth muscle cells; assay: Aldosterone in hemodynamic environment: gene array analysis; type: cell-based; conditions: aldosterone 1 mM vs vehicle; healthy and atheroprone
Procedure: Aldosterone at a concentration of 1 mM or a vehicle control (VEH) was added to the upper volume and RNA was collected for gene array analysis.

[4] = test system: endothelial cells and smooth muscle cells; assay: ANG2 in hemodynamic environment: gene array analysis; type: cell-based; conditions: ANG2 10 nM (10.46 ng/ml) vs DMSO vehicle; healthy and atheroprone
Procedure: ANG2 at a concentration of 10 nM (10.46 ng/ml) or a DMSO vehicle control (VEH) was added to the upper volume and RNA was collected for gene array analysis.

[5] = test system: endothelial cell/smooth muscle cell co-cultures; assay: HDL in hemodynamic environment; type: cell-based; conditions: HDL 45 μg/ml or 90 μg/ml, hemodynamic shear stress
Procedure: An additional component of plasma cholesterol distinct from nLDL or oxLDL is HDL. […] HDL was then added to the upper volume at a concentration of 45-1,000 μg/ml. This broad range reflects the broad range of HDL concentrations that can exist within human patients. HDL concentrations in individuals at risk for vascular disease are generally less than about 300 μg/ml, while HDL concentrations in healthy individuals range from greater than about 300 μg/ml up to about 2,000 μg/ml in healthy exercising patients.
In additional experiments, endothelial cell/smooth muscle cell co-cultures plated as described above were preconditioned for 16 hours with hemodynamic shear stress. From hours 16-24 the cells were additionally primed with 0.05 ng/ml TNFα and 50 μg/ml of oxLDL (compared to a vehicle control containing 50 μg/ml nLDL) in the upper volume. At 24 hours, 45 μg/ml or 90 μg/ml HDL was added to the media in the upper volume and hemodynamic shear stress was continued for the next 24 hours (hours 24-48).

[6] = test system: endothelial cells and smooth muscle cells; assay: oxLDL in hemodynamic environment: gene array, gene, protein and cytokine expression in co-culture; type: cell-based; conditions: for number of genes regulated as compared to nLDL: atheroprone, 50 μg/ml oxLDL vs 50 μg/ml nLDL
Procedure: Following 16-24 hours of shear stress preconditioning with atheroprotective or atheroprone hemodynamic forces, oxLDL was added to upper volume (containing the endothelial cells) at a concentration of 10-50 μg/ml (FIG. 5). In devices not receiving oxLDL, nLDL was added to the upper volume at the same concentration and used as a vehicle control. This concentration of oxLDL is similar to plasma concentrations of oxLDL observed in patients with cardiovascular disease. Shear stress application was continued for an additional 24 hours in the presence of oxLDL.
(§1) Five different donor pairs were used to analyze the oxLDL (50 μg/ml) response compared to nLDL (50 μg/ml) within the atheroprone hemodynamic environment in endothelial cells and smooth muscle cells. […] Significant genes were considered using an FDR of 0.01. Gene expression results are reported as the relative expression of the gene as compared to the expression of β-2 microglobulin (B2M). Protein expression results are reported as the relative expression of the protein as compared to the expression of actin. Activity of NFκB was assessed using an adenovirus NFκB-luciferase (Ad-NFKB-luc) reporter infected in ECs and SMCs.

NFκB = assay: Adenovirus NFκB-luciferase reporter in ECs and SMCs; type: cell-based
Procedure: as §1

endothelial cells [7] = assay: oxLDL and TNFα in hemodynamic environment: RT-PCR gene expression; type: cell-based; conditions: atheroprone
Procedure: To emulate more inflammatory stages of atherosclerosis, it is desirable to combine multiple circulating factors to better emulate the complexity found within human blood vessels. […] The media in the upper volume was then exchanged for media containing 0.05 ng/ml TNFα and 50 μg/ml of oxLDL. Media containing only 50 μg/ml of nLDL was used as a control.
Following 24 hours of shear stress preconditioning with atheroprotective or atheroprone hemodynamic forces, 50 μg/ml of oxLDL and 0.05 ng/ml of TNFα were added to upper volume (containing the endothelial cells). This concentration of TNFα is similar to plasma concentrations of TNFα observed in patients with cardiovascular disease. In devices not receiving oxLDL, nLDL was added to the upper volume at the same concentration and used as a vehicle control. Shear stress application was continued for an additional 24 hours in the presence of TNF-a and oxLDL (see FIG. 5). Gene expression analysis was performed using RT-PCR.

endothelial cells [8] = assay: Static monoculture thrombosis assay (A488-fibrin deposition by confocal microscopy); type: cell-based, human; conditions: static conditions; for fibrin deposition, mean fluorescence intensity: 4 hours
Procedure: (§2) Human endothelial cells were co-cultured with or without smooth muscle cells in the presence or absence of human-derived, region-specific hemodynamics. Endothelial cells were exposed to TNFα at various concentrations and incubated in human, platelet-free plasma supplemented by ALEXA FLUOR 488 (A488, a fluorescent dye)-labeled fibrinogen. Conversion of A488-fibrinogen to A488-fibrin and deposition on the endothelium was quantified by confocal microscopy.
For static monocultures of endothelial cells, endothelial cells were plated at 100,000 cells/cm^2 on coverslips and allowed to adhere for 24 hours. After 24 hours, media was exchanged with media containing 0 ng/ml, 1 ng/ml, 10 ng/ml, or 20 ng/ml TNFα. Cells were incubated for 4 hours at 37° C. Following incubation, media was removed and cells were washed twice with PBS. Cells were then incubated an additional 15 minutes at 37° C. with Human Platelet Free Plasma (PFP) supplemented with 37.5 μg/mL ALEXA-488 human fibrinogen, 20 μg/mL corn trypsin inhibitor, and 10 mM calcium. This protocol is depicted in FIG. 1A. After 15 minutes, the cells were fixed with 4% paraformaldehyde (PFA) and stained with 0.5 nM SYT083 (a fluorescent nucleic acid stain) in 10 mM Tris, 1 mM EDTA buffer for 45 minutes. Coverslips were mounted onto coverglass using FLUOROMOUNT-G (a mounting agent) and imaged.

[9] = test system: Endothelial/smooth muscle cell co-cultures; assay: Coculture thrombosis assay with shear stress, Protocol A (fibrin deposition); type: cell-based, human
Procedure: as §2
Following 24 hours of shear stress application (atheroprone or atheroprotective), the media was supplemented with TNFα at a concentration of 0.05 ng/mL or 0.10 ng/mL and shear stress was continued for an additional 24 hours, as shown in FIG. 3A. Media was then removed from both the upper and lower chambers, and both the endothelial cells and smooth muscle cells are washed twice with PBS. Endothelial cells were then incubated for 15 minutes at 37° C. with PFP supplemented with 37.5 μg/mL ALEXA-488 human fibrinogen, 20 μg/mL corn trypsin inhibitor, and 10 mM calcium, and fixed and imaged as described above for monocultures.

[10] = test system: Tissue Factor Pathway Inhibitor (TFPI); assay: Expression of genes relevant to thrombosis in co-cultures under hemodynamic flow; type: cell-based, human; conditions: TNFα stimulation; both endothelial and smooth muscle cells
Excerpt: FIG. 2B depicts a heat map of relative gene expression in endothelial and smooth muscle cells (grown under atheroprone or atheroprotective conditions; see FIG. 2A) of several genes relevant to thrombosis. The relative changes in gene expression of Tissue Factor (F3) and Thrombomodulin (THBD) are presented below the heat map. Atheroprone hemodynamics up-regulate Tissue Factor (F3) compared to atheroprotective shear stress. […] In addition, TNFα stimulation reduces Tissue Factor Pathway Inhibitor (TFPI) in both endothelial and smooth muscle cells.

endothelial cells [11] = assay: TNFα in hemodynamic environment: inflammatory gene expression; type: cell-based; conditions: 0.1-1 ng/ml TNFα, atheroprone hemodynamic forces; not seen at same levels in static
Procedure: Following 24 hours of shear stress preconditioning with atheroprotective or atheroprone hemodynamic forces, TNFα was added to upper volume (containing the endothelial cells) at a concentration of 0.05-1 ng/ml (see FIG. 5). This concentration of TNFα is similar to plasma concentrations of TNFα observed in patients with cardiovascular disease. Shear stress application was continued for an additional 24 hours in the presence of TNFα.

[12] = atheroprone hemodynamic environment

Compound: Cc1ccc2cc3c(ccc4ccccc43)c3c2c1CC3 [3-MC, 3-Methyl Cholanthrene]
fold lower levels giving induction responses under controlled hemodynamics (cytochrome p450 1A/1B; compared to static (1 μM static, 0.1 μM controlled hemodynamics)): 10 fold
1A/1B response to inducer (cytochrome p450 activity normalized to ATP) (cytochrome p450 1A/1B; controlled hemodynamics 0.6 dynes/cm^2, 3-MC 0.1 μM, 48 hours, day 7, DMSO 4.87): 133.06

3A response to inducer (cytochrome p450 activity normalized to ATP) (cytochrome p450 3A): 57.53
Compound: C[C@@H]1C[C@H]2[C@@H]3CCC4=CC(=O)C=C[C@]4(C)[C@@]3(F)[C@@H](O)C[C@]2(C)[C@@]1(O)C(=O)CO [Dexamethasone, dexamethasone]
toxicity (primary rat hepatocytes): toxic

total triglyceride content of hepatocytes (hepatocytes [1]): reduced
expression of metabolic genes such as Cyp3A2 (hepatocytes [2]): restored
Compound: CCc1ccc(CCOc2ccc(CC3SC(=O)NC3=O)cc2)nc1 (stereo not drawn) [Pioglitazone, pioglitazone]

Compound: C[C@]12CCC(=O)C=C1CC[C@@H]1[C@@H]2[C@@H](O)C[C@]2(C=O)[C@@H](C(=O)CO)CC[C@@H]12 [aldosterone, Aldosterone]
inflammatory genes (gene array) [3]: upregulated

Compound: Angiotensin II (DRVYIHPF; Angiotensin-2; UniProt P01019 25-32, looked up) [ANG2]
inflammatory genes (gene array) [4]: upregulated

Compound: high-density lipoprotein [HDL]
activation of pro-inflammatory genes and proteins [5]: blocking activation
atheroprotective genes [5]: activates

Compound: oxidized low-density lipoprotein [oxLDL]
atheroprotective signaling (eNOS and KLF2) gene expression ([6]; atheroprone conditions): reduced atheroprotective signaling
HO-1 and ATF3 gene expression ([6]; atheroprone conditions compared to traditional static, oxLDL 10-50 μg/ml vs nLDL): activates these genes at much higher levels
inflammatory genes IL8 and E-Selectin (SELE) expression ([6]; atheroprone conditions, not regulated in static cultures): activate
VCAM-1 protein expression [6, 12]: elevated
phosphorylation of eNOS [6, 12]: reduced phosphorylation
secreted cytokines IL6, IL8 and MCP-1 [6, 12]: increased levels
number of genes regulated as compared to nLDL ([6]; endothelial cells, 5 donors): 688 genes
number of genes regulated as compared to nLDL ([6]; smooth muscle cells, 4 donors): 304 genes
NFκB activity (luciferase reporter) (NFκB; endothelial cells, atheroprone hemodynamics): further heightened
NFκB signaling (luciferase reporter) (NFκB; smooth muscle cells, oxLDL added to upper volume only): elevated NFKB signaling
eNOS gene expression (NOS3) (endothelial cells [7]; 50 μg/ml oxLDL): reduced
E-Selectin (SELE) gene expression (endothelial cells [7]; 50 μg/ml oxLDL vs nLDL control): higher levels

Compound: tumor necrosis factor-α [TNFα]
fibrin deposition, mean fluorescence intensity (endothelial cells [8]; 1 ng/ml TNFα): 1.17e5
fibrin deposition, mean fluorescence intensity (endothelial cells [8]; 10 ng/ml TNFα): 2.69e7
fibrin deposition, mean fluorescence intensity (endothelial cells [8]; 20 ng/ml TNFα): 3.61e7
TNFα concentration needed for activation relative to physiological levels (endothelial cells [8]): approximately 200 fold
fibrin deposition, mean fluorescence intensity ([9]; 0.05 ng/ml TNFα, 24 hours, atheroprone hemodynamics from internal carotid sinus, Protocol A): 1.9e7
fold lower levels of TNFα inducing fibrin deposition as compared to static cultures ([9]; atheroprone hemodynamic priming): 100- to 200 fold
Tissue Factor Pathway Inhibitor (TFPI) expression [10]: reduces
inflammatory response (E-Selectin, ICAM, VCAM, IL8 expression) (endothelial cells [11]): induced an inflammatory response
